Experimental data reported in PMC13221243, “Crosstalk Between Lysine Lactylation and Acetylation Regulates Lactate Dehydrogenase in Streptococcus mutans” (Genomics, Proteomics & Bioinformatics, 2025).

Experiments:
ActA [1] = biological target: T1, ActA (Streptococcus mutans, UniProt Q8DVT1); test: in vitro acylation of LDH, anti-Kla Western blot; format: biochemical; details: acyl acceptor recombinant LDH; pH 7.5, 10 mM MgCl2, 37°C, 3 h
T1 construct: gene SMU_386; recombinant His-tagged from pET28a, E. coli BL21(DE3), nickel purified
T1 sequence (Q8DVT1 1-144): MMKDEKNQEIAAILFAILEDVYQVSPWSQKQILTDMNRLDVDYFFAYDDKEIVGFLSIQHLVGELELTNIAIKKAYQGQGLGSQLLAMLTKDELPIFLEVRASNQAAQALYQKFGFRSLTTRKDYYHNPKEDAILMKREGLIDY

ActA [2] = biological target: T1, ActA; test: in vitro acylation of LDH, anti-Kac Western blot; format: biochemical; details: acyl acceptor recombinant LDH; pH 7.5, 10 mM MgCl2, 37°C, 3 h

| SMILES | in vitro acylation of LDH, anti-Kla Western blot (ActA [1]) | in vitro acylation of LDH, anti-Kac Western blot (ActA [2]) |
| --- | --- | --- |
| CC(O)C(=O)SCCNC(=O)CCNC(=O)[C@H](O)C(C)(C)COP(=O)(O)OP(=O)(O)OC[C@H]1O[C@@H](n2cnc3c(N)ncnc32)[C@H](O)[C@@H]1OP(=O)(O)O (some centres unmarked) [La-CoA] | However, ActA significantly increased the levels of Kla and Kac in LDH enzymatically. | – |
| CC(=O)SCCNC(=O)CCNC(=O)[C@H](O)C(C)(C)COP(=O)(O)OP(=O)(O)OC[C@H]1O[C@@H](n2cnc3c(N)ncnc32)[C@H](O)[C@@H]1OP(=O)(O)O [Ac-CoA] | – | However, ActA significantly increased the levels of Kla and Kac in LDH enzymatically. |
